Measurements taken from patent US8901118B2, “Compounds and methods for kinase modulation, and indications therefor” (Plexxikon Inc., priority 2010, dated 2014).
pIC50: −log10 of the molar value.

Assays:
[1] = test system: Osteoclast precursor cells; assay: Osteoclast differentiation assay (acid phosphatase readout); assay type: cell-based
Procedure: Further, an osteoclast differentiation assay is used to assess the efficacy of Fms inhibitors for treating bone disease such as osteoarthritis. On day 0, Osteoclast Medium BulletKit (Lonza catalog #PT-8001, containing Media, FBS, L-Glutamine, PenStrep, RANKL, and M-CSF) media is thawed and the FBS, L-glutamine and PenStrep from the kit is added to 100 mL of Osteoclast Precursor Basal medium to provide the Osteoclast Precursor Growth Medium (OPGM). This is warmed to 37° C. Osteoclast precursor cells (Lonza catalog #2T-110) frozen in cryovial are warmed to 37° C. and transferred to a 50 mL conical tube. The cryovial is rinsed with OPGM and added dropwise to the conical tube of cells with swirling, then the volume is adjusted to 20-30 mL with addition of OPGM. The cells are centrifuged at 200×g for 15 minutes at room temperature and all but approximately 3 mL of supernatant is removed to a new conical tube. The cells are suspended in the remaining supernatant and the volume is adjusted to 10-15 mL with OPGM added dropwise with swirling. The cells are centrifuged at 200×g for 15 minutes at room temperature and all but approximately 1 mL of supernatant is removed. The cells are resuspended in the remaining supernatant, counted, and the volume adjusted with an appropriate amount of OPGM to provide approximately 1×10^5 cells/mL. A 0.1 mL aliquot of cells is added to each well of a 96-well plate. Compound to be tested is prepared in DMSO for plating at a high concentration of 2.5 mM, with 8 point 1:3 serial dilutions. A 1 μL aliquot of each compound dilution is added to a 96 well v-bottom polypropylene plate and 0.124 mL of OPGM is added to the compound. Then 50 μL at of the compound in OPGM is added to the osteoclast precursor cells in 96-well plate (providing highest test concentration of 5 μM). RANKL (2 μg) from the BulletKit is reconstituted in 1 mL of OPGM, then vortexed and centrifuged briefly. A 792 μL at aliquot of RANKL is added to 6 mL of OPGM and 50 μL at is added to low control wells. Then 76.6 μL M-CSF (10 μg/mL) from the BulletKit is added to the remaining 5.8 mL of OPGM/RANKL solution (4×RANKL/M-CSF/OPGM). A 50 μL at aliquot of this is added to the remaining wells, and the remainder is stored at 4° C. for later use. The plate is incubated at 37° C. for 6 days, then the remaining OPGM/RANKL/M-CSF solution is warmed to 37° C. The remaining approximately 198 μL is combined with 6 mL of OPGM. The media is aspirated from the osteoclast wells and 100 μL of RANKL/OPGM is added to the low controls. The remaining RANKL/OPGM is combined with the approximately 18.5 μL of remaining M-CSF. The remaining 4×RANKL/M-CSF/OPGM from day 0 is diluted to 1× and combined with the freshly prepared solution. A 0.1 mL aliquot of this is added to each osteoclast well and incubated for 37° C. for 1 day. The Acid Phosphatase kit (Cayman Chemical catalog #10008051) is warmed to room temperature. The assay buffer is diluted 5 mL with 45 mL of water. For each plate, two substrate tablets are dissolved in 4.5 mL of the assay buffer, mixing by vortex to break up the tablet. Stop solution is diluted 12 mL with 36 mL of water. In a tissue culture hood, 20 μL of each osteoclast well supernatant is transferred to a 96 well plate. A 30 μL aliquot of the substrate solution is added to each well and incubated at 37° C. for 20 minutes, then added 100 μL stop solution to each well. The absorbance of each well is read at 405 nm on Safire plate reader. The absorbance reading is plotted vs. concentration to provide the IC50 for each compound.

[2] = Relative solubility by turbidity in aqueous buffers (pH 1.5, 4.5, 6.8, 7.4); assay type: physicochemical; conditions: for turbidity threshold (L, M, H) 1.4: pH 1.5 (SGF); for turbidity threshold (L, M, H) 4.5: pH 4.5 (SIF); for turbidity threshold (L, M, H) 6.8: pH 6.8 (SIF); for turbidity threshold (L, M, H) 7.4: pH 7.4 (HEPES)
In short: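 Twofold DMSO dilutions of a 25 mM stock were spiked into SGF (0.5M NaCl, pH 1.5), SIF (0.05M NaH2PO4, pH 4.5 and 6.8) or HEPES buffer (10 mM HEPES, 150 mM NaCl, pH 7.4). Absorbance was read at 490, 535 and 650 nm. The endpoint is the concentration crossing O.D. 0.01, averaged across wavelengths.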

**Q.** What does the source list for `CCn1cc(Nc2ccc(Cc3c[nH]c4ncnc(C)c34)c(F)n2)cn1` [Compound P-4013, (1-Ethyl-1H-pyrazol-4-yl)-[6-fluoro-5-(4-methyl-7H-pyrrolo[2,3-d]pyrimidin-5-ylmethyl)-pyridin-2-yl]-amine]?
**A.** pIC50 [1]: > 7.00; turbidity threshold (L, M, H) 1.4 [2]: H (high solubility if the threshold concentration is >250 μm); turbidity threshold (L, M, H) 4.5 [2]: M (moderate solubility if the threshold concentration is 31.3 μM to 250 μM); turbidity threshold (L, M, H) 6.8 [2]: M (moderate solubility if the threshold concentration is 31.3 μM to 250 μM); turbidity threshold (L, M, H) 7.4 [2]: M (moderate solubility if the threshold concentration is 31.3 μM to 250 μM)

**Q.** With `CCOc1ccc(Nc2ccc(Cc3c[nH]c4ncnc(OC)c34)c(F)n2)cn1` [Compound P-4005, (6-Ethoxy-pyridin-3-yl)-[6-fluoro-5-(4-methoxy-7H-pyrrolo[2,3-d]pyrimidin-5-ylmethyl)-pyridin-2-yl]-amine] as the molecule, how does the pIC50 [1] read?
**A.** Its pIC50 is > 7.00.

**Q.** And the “turbidity threshold (L, M, H) 1.4” value [2]?
**A.** The value was “M (moderate solubility if the threshold concentration is 31.3 μM to 250 μM)”.

**Q.** What about the “turbidity threshold (L, M, H) 4.5” value [2] of the same molecule?
**A.** Its value is “L (low solubility if the threshold concentration is <31.3 μM)”.

**Q.** And the “turbidity threshold (L, M, H) 6.8” value [2]?
**A.** The value was “L (low solubility if the threshold concentration is <31.3 μM)”.

**Q.** What about the “turbidity threshold (L, M, H) 7.4” value [2] of the same molecule?
**A.** Its value is “L (low solubility if the threshold concentration is <31.3 μM)”.

**Q.** Which results are given for `CCn1cc(Nc2ccc(Cc3c[nH]c4ncnc(OCCOC)c34)c(F)n2)cn1` [Compound P-4014, (1-Ethyl-1H-pyrazol-4-yl)-{6-fluoro-5-[4-(2-methoxy-ethoxy)-7H-pyrrolo[2,3-d]pyrimidin-5-ylmethyl]-pyridin-2-yl}-amine]?
**A.** pIC50 [1]: > 7.00; turbidity threshold (L, M, H) 1.4 [2]: M (moderate solubility if the threshold concentration is 31.3 μM to 250 μM); turbidity threshold (L, M, H) 4.5 [2]: M (moderate solubility if the threshold concentration is 31.3 μM to 250 μM); turbidity threshold (L, M, H) 6.8 [2]: M (moderate solubility if the threshold concentration is 31.3 μM to 250 μM); turbidity threshold (L, M, H) 7.4 [2]: M (moderate solubility if the threshold concentration is 31.3 μM to 250 μM)

**Q.** What does the source list for `CCn1cc(Nc2ccc(Cc3c[nH]c4ncnc(OC)c34)c(F)n2)cn1` [Compound P-4011, (1-Ethyl-1H-pyrazol-4-yl)-[6-fluoro-5-(4-methoxy-7H-pyrrolo[2,3-d]pyrimidin-5-ylmethyl)-pyridin-2-yl]-amine]?
**A.** pIC50 [1]: > 7.00; turbidity threshold (L, M, H) 1.4 [2]: M (moderate solubility if the threshold concentration is 31.3 μM to 250 μM); turbidity threshold (L, M, H) 4.5 [2]: M (moderate solubility if the threshold concentration is 31.3 μM to 250 μM); turbidity threshold (L, M, H) 6.8 [2]: M (moderate solubility if the threshold concentration is 31.3 μM to 250 μM); turbidity threshold (L, M, H) 7.4 [2]: M (moderate solubility if the threshold concentration is 31.3 μM to 250 μM)

**Q.** What does the source list for `COc1ccc(Nc2ccc(Cc3c[nH]c4ncnc(OC)c34)c(F)n2)cn1` [Compound P-4001, [6-Fluoro-5-(4-methoxy-7H-pyrrolo[2,3-d]pyrimidin-5-ylmethyl)-pyridin-2-yl]-(6-methoxy-pyridin-3-yl)-amine]?
**A.** pIC50 [1]: > 7.00; turbidity threshold (L, M, H) 1.4 [2]: M (moderate solubility if the threshold concentration is 31.3 μM to 250 μM); turbidity threshold (L, M, H) 4.5 [2]: M (moderate solubility if the threshold concentration is 31.3 μM to 250 μM); turbidity threshold (L, M, H) 6.8 [2]: M (moderate solubility if the threshold concentration is 31.3 μM to 250 μM); turbidity threshold (L, M, H) 7.4 [2]: M (moderate solubility if the threshold concentration is 31.3 μM to 250 μM)
